# Source: patent US9102614B2, “Naphth-2-ylacetic acid derivatives to treat AIDS” (Gilead Sciences, Inc., priority 2010, dated 2015)
# System: HIV-IIIb
# Assay: Test A: Antiviral Assays in MT4 Cells
# Format: cell-based
# Details: Human immunodeficiency virus 1, IIIB, MT4, 120 h
# Description: Test A: Antiviral Assays in MT4 Cells
# For the antiviral assay utilizing MT-4 cells, 0.4 μL of […] test concentration of 3-fold serially diluted compound in DMSO was added to 40 μL of cell growth medium (RPMI 1640, 10% FBS, 1% penicillin/Streptomycin, 1% L-Glutamine, 1% HEPES) in each well of 384-well assay plates (10 concentrations) in quadruplicate.
# 1 mL aliquots of 2×10e6 MT-4 cells are pre-infected for 1 and 3 hrs respectively, @37° C. with 25 μL (MT4) or of either cell growth medium (mock-infected) or a fresh 1:250 dilution of an HIV-IIIb concentrated ABI stock (0.004 m.o.i. for MT4 cells). Infected and uninfected cells are diluted in cell growth medium and 35 uL of 2000 (for MT4) cells is added to each well of the assay plates.
# Assay plates were then incubated in a 37° C. incubator. After 5 days of incubation, 25 μl of 2× concentrated CellTiter-Glo™ Reagent (catalog #G7573, Promega Biosciences, Inc., Madison, Wis.) was added to each well of the assay plate. Cell lysis was carried out by incubating at room temperature for 2-3 min and then chemiluminescence was read using the Envision reader (PerkinElmer).
row,Compound,EC50 [µM]
1,"Cc1cc2c(C#CCN(C)C)cccc2c(-c2ccc(Cl)cc2)c1C(OC(C)(C)C)C(=O)O (stereo not drawn) [Compound 39, 2-tert-Butoxy-2-(1-(4-chlorophenyl)-5-(3-(dimethylamino)prop-1-ynyl)-3-methylnaphthalen-2-yl)acetic acid]",0.7

# Same assay, conditions: Human immunodeficiency virus 1, IIIB, MT4, 120 h, MT-4 cells infected with HIV-IIIb (0.004 m.o.i.), 5 days of incubation, CellTiter-Glo chemiluminescence readout; read-out: EC50
row,Compound,EC50 [µM]
1,"CCc1cc2ccccc2c(-c2ccc(Cl)cc2)c1[C@H](OC(C)(C)C)C(=O)O [Compound 29B, (S)-2-tert-butoxy-2-(1-(4-chlorophenyl)-3-ethylnaphthalen-2-yl)acetic acid]",0.5
2,"CC(C)(C)O[C@H](C(=O)O)c1c(CO)cc2ccccc2c1-c1ccc(Cl)cc1 [Compound 30, (S)-2-tert-Butoxy-2-(1-(4-chlorophenyl)-3-(hydroxymethyl)naphthalen-2-yl)acetic acid]",0.044
3,"CC(C)(C)O[C@H](C(=O)O)c1c(CF)cc2ccccc2c1-c1ccc2c3c(ccnc13)CCO2 [Compound 31, (S)-2-tert-Butoxy-2-((R)-1-(2,3-dihydropyrano[4,3,2-de]quinolin-7-yl)-3-(fluoromethyl)naphthalen-2-yl)acetic acid]",0.11
4,"CC(C)(C)O[C@H](C(=O)O)c1c(C(F)F)cc2ccccc2c1-c1ccc2c3c(ccnc13)CCO2 [Compound 32, (S)-2-tert-Butoxy-2-((R)-3-(difluoromethyl)-1-(2,3-dihydropyrano[4,3,2-de]quinolin-7-yl)naphthalen-2-yl)acetic acid]",0.086
5,"Cc1cc2ccccc2c(-c2ccc(Cl)cc2Cl)c1C(OC(C)(C)C)C(=O)O (stereo not drawn) [Compound 33, tert-Butoxy-[1-(2,4-dichloro-phenyl)-3-methyl-naphthalen-2-yl]-acetic acid]",0.12
6,"COc1cccc2c(-c3ccc(Cl)cc3)c(C(OC(C)(C)C)C(=O)O)c(C)cc12 (stereo not drawn) [Compound 34, tert-Butoxy-[1-(4-chloro-phenyl)-5-methoxy-3-methyl-naphthalen-2-yl]-acetic acid]",0.35
7,"Cc1cc2c(Br)cccc2c(-c2ccc(Cl)cc2)c1C(OC(C)(C)C)C(=O)O (stereo not drawn) [Compound 37, 2-(5-Bromo-1-(4-chlorophenyl)-3-methylnaphthalen-2-yl)-2-tert-butoxyacetic acid]",1.2
8,"Cc1cc2c(-c3ccc(Cl)cc3)cccc2c(-c2ccc(Cl)cc2)c1C(OC(C)(C)C)C(=O)O (stereo not drawn) [Compound 38, 2-(1,5-Bis(4-chlorophenyl)-3-methylnaphthalen-2-yl)-2-tert-butoxyacetic acid]",3.4
9,"Cc1cc2c(C)cccc2c(-c2ccc(Cl)cc2)c1C(OC(C)(C)C)C(=O)O (stereo not drawn) [Compound 40, 2-tert-Butoxy-2-(1-(4-chlorophenyl)-3,5-dimethylnaphthalen-2-yl)acetic acid]",0.21
10,"Cc1cc2c(-c3cncnc3)cccc2c(-c2ccc(Cl)cc2)c1C(OC(C)(C)C)C(=O)O (stereo not drawn) [Compound 41, 2-tert-Butoxy-2-(1-(4-chlorophenyl)-3-methyl-5-(pyrimidin-5-yl)naphthalen-2-yl)acetic acid]",0.4
11,"Cc1cc2cc(F)ccc2c(-c2ccc(Cl)cc2)c1C(OC(C)(C)C)C(=O)O (stereo not drawn) [Compound 42, 2-tert-Butoxy-2-(1-(4-chlorophenyl)-6-fluoro-3-methylnaphthalen-2-yl)acetic acid]",0.11
12,"Cc1cc2c(F)cccc2c(-c2ccc3c4c(ccnc24)CCO3)c1C(OC(C)(C)C)C(=O)O (stereo not drawn) [Compound 44, 2-tert-Butoxy-2-(1-(2,3-dihydropyrano[4,3,2-de]quinolin-7-yl)-5-fluoro-3-methylnaphthalen-2-yl)acetic acid]",0.12
13,"Cc1cc2c(Cl)cccc2c(-c2ccc(Cl)cc2)c1C(OC(C)(C)C)C(=O)O (stereo not drawn) [Compound 45, 2-tert-Butoxy-2-(5-chloro-1-(4-chlorophenyl)-3-methylnaphthalen-2-yl)acetic acid]",1.8
14,"Cc1cc2c(F)cccc2c(-c2ccc(Cl)cc2)c1C(OC(C)(C)C)C(=O)O (stereo not drawn) [Compound 46, 2-tert-Butoxy-2-(1-(4-chlorophenyl)-5-fluoro-3-methylnaphthalen-2-yl)acetic acid]",1.4
15,"COc1ccc2c(-c3ccc(Cl)cc3)c(C(OC(C)(C)C)C(=O)O)c(C)cc2c1 (stereo not drawn) [Compound 48, 2-tert-Butoxy-2-(1-(4-chlorophenyl)-6-methoxy-3-methylnaphthalen-2-yl)acetic acid]",0.21
16,"COc1ccc(Cc2c(OC)ccc3c(-c4ccc(Cl)cc4)c(C(OC(C)(C)C)C(=O)O)c(C)cc23)cc1 (stereo not drawn) [Compound 49, 2-tert-Butoxy-2-(1-(4-chlorophenyl)-6-methoxy-5-(4-methoxybenzyl)-3-methylnaphthalen-2-yl)acetic acid]",0.65
17,"Cc1cc2cc(-c3ccncc3)ccc2c(-c2ccc(Cl)cc2)c1[C@H](OC(C)(C)C)C(=O)O [Compound 53, (S)-2-tert-Butoxy-2-(1-(4-chlorophenyl)-3-methyl-6-(pyridin-4-yl)naphthalen-2-yl)acetic acid]",0.12
18,"Cc1cc2cc(-c3cccnc3)ccc2c(-c2ccc(Cl)cc2)c1[C@H](OC(C)(C)C)C(=O)O [Compound 54, (S)-2-tert-Butoxy-2-(1-(4-chlorophenyl)-3-methyl-6-(pyridin-3-yl)naphthalen-2-yl)acetic acid]",0.055
19,"Cc1cc2cc(-c3cncnc3)ccc2c(-c2ccc(Cl)cc2)c1[C@H](OC(C)(C)C)C(=O)O [Compound 55, (S)-2-tert-Butoxy-2-(1-(4-chlorophenyl)-3-methyl-6-(pyrimidin-5-yl)naphthalen-2-yl)acetic acid]",0.054
20,"Cc1cc2cc(-c3cn[nH]c3)ccc2c(-c2ccc(Cl)cc2)c1[C@H](OC(C)(C)C)C(=O)O [Compound 57, (S)-2-tert-Butoxy-2-(1-(4-chlorophenyl)-3-methyl-6-(1H-pyrazol-4-yl)naphthalen-2-yl)acetic acid]",0.082
21,"Cc1ccc2c(-c3ccc(Cl)cc3)c(C(OC(C)(C)C)C(=O)O)c(C)cc2c1 (stereo not drawn) [Compound 58, 2-tert-Butoxy-2-(1-(4-chlorophenyl)-3,6-dimethylnaphthalen-2-yl)acetic acid]",0.042
22,"Cc1cc2cc(-c3ncccn3)ccc2c(-c2ccc(Cl)cc2)c1[C@H](OC(C)(C)C)C(=O)O [Compound 59, (S)-2-tert-butoxy-2-(1-(4-chlorophenyl)-3-methyl-6-(pyrimidin-2-yl)naphthalen-2-yl)acetic acid]",0.16
23,"Cc1cc2cc(-c3cnccn3)ccc2c(-c2ccc(Cl)cc2)c1[C@H](OC(C)(C)C)C(=O)O [Compound 60, (S)-2-tert-Butoxy-2-(1-(4-chlorophenyl)-3-methyl-6-(pyrazin-2-yl)naphthalen-2-yl)acetic acid]",0.032
24,"Cc1cc2cc(-c3ccccn3)ccc2c(-c2ccc(Cl)cc2)c1[C@H](OC(C)(C)C)C(=O)O [Compound 63, (S)-2-tert-Butoxy-2-(1-(4-chlorophenyl)-3-methyl-6-(pyridin-2-yl)naphthalen-2-yl)acetic acid]",0.099
25,"Cc1cc2cc(-c3cn(C)cn3)ccc2c(-c2ccc(Cl)cc2)c1[C@H](OC(C)(C)C)C(=O)O [Compound 64, (S)-2-tert-Butoxy-2-(1-(4-chlorophenyl)-3-methyl-6-(1-methyl-1H-imidazol-4-yl)naphthalen-2-yl)acetic acid]",0.052
26,"Cc1cc2cc(-c3cncn3C)ccc2c(-c2ccc(Cl)cc2)c1[C@H](OC(C)(C)C)C(=O)O [Compound 65, (S)-2-tert-butoxy-2-(1-(4-chlorophenyl)-3-methyl-6-(1-methyl-1H-imidazol-5-yl)naphthalen-2-yl)acetic acid]",0.19
27,"Cc1cc2cc(-c3ccc(Cl)cc3)ccc2c(-c2ccc(Cl)cc2)c1C(OC(C)(C)C)C(=O)O (stereo not drawn) [Compound 66, 2-(1,6-Bis(4-chlorophenyl)-3-methylnaphthalen-2-yl)-2-tert-butoxyacetic acid]",0.29
28,"Cc1cc2ccc(C#CC(C)(C)O)cc2c(-c2ccc(Cl)cc2)c1C(OC(C)(C)C)C(=O)O (stereo not drawn) [Compound 69, 2-tert-butoxy-2-(1-(4-chlorophenyl)-7-(3-hydroxy-3-methylbut-1-ynyl)-3-methylnaphthalen-2-yl)acetic acid]",0.38

# Same assay, conditions: MT-4 cells infected with HIV-IIIb (0.004 m.o.i.), 5 days of incubation, CellTiter-Glo chemiluminescence readout; read-out: EC50
row,Compound,EC50 [µM]
1,"Cc1cc2cc(F)ccc2c(-c2ccc3c4c(ccnc24)CCO3)c1C(OC(C)(C)C)C(=O)O [Compound 43, 2-tert-butoxy-2-((R)-1-(2,3-dihydropyrano[4,3,2-de]quinolin-7-yl)-6-fluoro-3-methylnaphthalen-2-yl)acetic acid]",0.022
2,"Cc1cc2c(Cl)cccc2c(-c2ccc3c4c(ccnc24)CCO3)c1C(OC(C)(C)C)C(=O)O [Compound 47, 2-tert-Butoxy-2-((R)-5-chloro-1-(2,3-dihydropyrano[4,3,2-de]quinolin-7-yl)-3-methylnaphthalen-2-yl)acetic acid]",0.11
3,"Cc1cc2cc(Cl)ccc2c(-c2ccc3c4c(ccnc24)CCO3)c1[C@H](OC(C)(C)C)C(=O)O [Compound 68A, (S)-2-tert-Butoxy-2-((R)-6-chloro-1-(2,3-dihydropyrano[4,3,2-de]quinolin-7-yl)-3-methylnaphthalen-2-yl)acetic acid]",0.014
4,"Cc1ccc2c(-c3ccc4c5c(ccnc35)CCO4)c([C@H](OC(C)(C)C)C(=O)O)c(C)cc2c1 [Compound 68B, (S)-2-tert-Butoxy-2-((R)-1-(2,3-dihydropyrano[4,3,2-de]quinolin-7-yl)-3,6-dimethylnaphthalen-2-yl)acetic acid]",0.005
